Reference: patent publication US20140323300A1, “HERBICIDAL COMPOUNDS” (SYNGENTA LIMITED, priority 2011, published 2014)

Legend:
[1] = test system: Alopecurus myosuroides (ALOMY); test: Post-emergence glasshouse herbicide test; assay type: in vivo; settings: post-emergence (sprayed after 8 days cultivation), 1000 g/h, evaluated after 13 days, five point scale
Procedure, shortened: (§1)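 Damage was rated 13 days after treatment on a five-point scale (1 = 0–19%, 5 = 80–100%). The compound, formulated in 50:50 acetone/water with 0.5% Tween 20, was sprayed at 1000 g/h on pots one day (pre) or 8 days (post) after sowing, kept in a glasshouse at 24/16° C, 14 h light, 65% humidity.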

[2] = test system: Amaranthus retoflexus (AMARE); test: Post-emergence glasshouse herbicide test; assay type: in vivo; settings: post-emergence (sprayed after 8 days cultivation), 1000 g/h, evaluated after 13 days, five point scale
Procedure, shortened: as §1

[3] = test system: Echinochloa crus-galli (ECHCG); test: Post-emergence glasshouse herbicide test; assay type: in vivo; settings: post-emergence (sprayed after 8 days cultivation), 1000 g/h, evaluated after 13 days, five point scale
Procedure, shortened: as §1

[4] = test system: Ipomoea hederacea (IPOHE); test: Post-emergence glasshouse herbicide test; assay type: in vivo; settings: post-emergence (sprayed after 8 days cultivation), 1000 g/h, evaluated after 13 days, five point scale
Procedure, shortened: as §1

Setaria faberi (SETFA) [5] = test: Post-emergence glasshouse herbicide test; assay type: in vivo; settings: post-emergence (sprayed after 8 days cultivation), 1000 g/h, evaluated after 13 days, five point scale
Procedure, shortened: as §1

Solanum nigrum (SOLNI) [6] = test: Post-emergence glasshouse herbicide test; assay type: in vivo; settings: post-emergence (sprayed after 8 days cultivation), 1000 g/h, evaluated after 13 days, five point scale
Procedure, shortened: as §1

[7] = test system: Alopecurus myosuroides (ALOMY); test: Pre-emergence glasshouse herbicide test; assay type: in vivo; settings: pre-emergence (sprayed after one day cultivation), 1000 g/h, evaluated after 13 days, five point scale
Procedure, shortened: as §1

[8] = test system: Amaranthus retoflexus (AMARE); test: Pre-emergence glasshouse herbicide test; assay type: in vivo; settings: pre-emergence (sprayed after one day cultivation), 1000 g/h, evaluated after 13 days, five point scale
Procedure, shortened: as §1

[9] = test system: Echinochloa crus-galli (ECHCG); test: Pre-emergence glasshouse herbicide test; assay type: in vivo; settings: pre-emergence (sprayed after one day cultivation), 1000 g/h, evaluated after 13 days, five point scale
Procedure, shortened: as §1

[10] = test system: Ipomoea hederacea (IPOHE); test: Pre-emergence glasshouse herbicide test; assay type: in vivo; settings: pre-emergence (sprayed after one day cultivation), 1000 g/h, evaluated after 13 days, five point scale
Procedure, shortened: as §1

Setaria faberi (SETFA) [11] = test: Pre-emergence glasshouse herbicide test; assay type: in vivo; settings: pre-emergence (sprayed after one day cultivation), 1000 g/h, evaluated after 13 days, five point scale
Procedure, shortened: as §1

Solanum nigrum (SOLNI) [12] = test: Pre-emergence glasshouse herbicide test; assay type: in vivo; settings: pre-emergence (sprayed after one day cultivation), 1000 g/h, evaluated after 13 days, five point scale
Procedure, shortened: as §1

Compound | percentage damage caused to the plant, POST Application ALOMY [1] | percentage damage caused to the plant, POST Application AMARE [2] | percentage damage caused to the plant, POST Application ECHCG [3] | percentage damage caused to the plant, POST Application IPOHE [4] | percentage damage caused to the plant, POST Application SETFA (Setaria faberi (SETFA) [5]) | percentage damage caused to the plant, POST Application SOLNI (Solanum nigrum (SOLNI) [6]) | percentage damage caused to the plant, PRE Application ALOMY [7] | percentage damage caused to the plant, PRE Application AMARE [8] | percentage damage caused to the plant, PRE Application ECHCG [9] | percentage damage caused to the plant, PRE Application IPOHE [10] | percentage damage caused to the plant, PRE Application SETFA (Setaria faberi (SETFA) [11]) | percentage damage caused to the plant, PRE Application SOLNI (Solanum nigrum (SOLNI) [12]) | melting point [°C]
C=C(C)C1C=NN(c2ccc(C(F)(F)F)cc2S(C)(=O)=O)C(=O)C1=O (stereo not shown) [Compound 1.039, 4-Isopropenyl-1-[2-methylsulfonyl-4-(trifluoromethyl)phenyl]-4H-pyridazine-5,6-dione] | 5 (5=80-100%) | 5 (5=80-100%) | 5 (5=80-100%) | 5 (5=80-100%) | 5 (5=80-100%) | 5 (5=80-100%) | 5 (5=80-100%) | 5 (5=80-100%) | 5 (5=80-100%) | 5 (5=80-100%) | 5 (5=80-100%) | 5 (5=80-100%) | 144 to 147
C[S+]([O-])c1cnn(-c2ccc(C(F)(F)F)cc2S(C)(=O)=O)c(=O)c1O (stereo not shown) [Compound 1.041] | 1 (1=0-19%) | 5 (5=80-100%) | 4 (4=60-79%) | 4 (4=60-79%) | 2 (2=20-39%) | 5 (5=80-100%) | 1 (1=0-19%) | 5 (5=80-100%) | 4 (4=60-79%) | 4 (4=60-79%) | 2 (2=20-39%) | 5 (5=80-100%) | 
Cc1nc(C(F)(F)F)ccc1-n1ncc(Br)c(O)c1=O [Compound 1.023] | 3 (3=40-59%) | 5 (5=80-100%) | 5 (5=80-100%) | 5 (5=80-100%) | 5 (5=80-100%) | 5 (5=80-100%) | 3 (3=40-59%) | 5 (5=80-100%) | 5 (5=80-100%) | 5 (5=80-100%) | 5 (5=80-100%) | 5 (5=80-100%) | 
